The results in this text go back to patent US7235590B2, “Use of treosulfan and derivatives thereof for treating multiple sclerosis” (Medac Gesellschaft fur Klinische Spezialpraparate mbH, priority 2002, dated 2007).

For data set [1], the system named is myelin oligodendrocyte glycoprotein (MOG) induced experimental autoimmune encephalomyelitis (EAE). The data set is described as follows: MOG-induced experimental autoimmune encephalomyelitis (EAE) in DA rats, clinical course. It counts as in vivo. As for the experimental part: Using the example of experimental autoimmune encephalomyelitis (EAE) which is recognized as animal model of human MS, the effectiveness of treosulfan was first of all examined. […] In the first trials, treosulfan was applied on the day of immunisation, in another on day 14 following immunisation.
Firstly, several trials for the determination of the dosage of treosulfan were carried out in DA rats, a strain of rat particularly suitable for these trials (Dark Agouti strain) with myelin oligodendrocyte glycoprotein (MOG) induced experimental autoimmune encephalomyelitis (EAE). These rats represent an excellent model of multiple sclerosis (MS) since the clinical development and the lesion morphology (inflammation, demyelination, loss of axons and nerve cells) of MS can be reproduced.
DA rats (10 animals per group) were treated either with a single dose of treosulfan (0.5 g/kg bodyweight) on the day of immunisation (p.i.) or with a three times repeated treosulfan application (0.5 g/kg bodyweight per application) at intervals of 1 day. PBS (phosphate buffered salt solution) was administered as control. In a further experiment, treosulfan (single dose: 0.5 g/kg bodyweight) was administered 2 weeks after immunisation. The total number of rats was 30 animals. The animals were observed clinically for the period of 40 days after initiation of the experiment and regularly examined neurologically.
FIGS. 3 and/or 3a are different representations of the experiment in which treosulfan was administered on day 14 following immunisation.

Data set [2] can be described thus: Tolerance and haematological characterisation in MOG-EAE rats. It counts as in vivo, DA rats. The source says: To analyse the haematological status, blood was taken from the rats on day 0, day 5, day 14, and day 53 following immunisation and a determination of haemoglobin (Hb), reticulocytes, leukocytes, thrombocytes and crythrocytes carried out.
The tolerance of treosulfan is illustration in FIGS. 5–15.

For the next data set, the system named is secondary progressive MS. Kind of data set: Healing trial on patients with secondary progressive MS. The class given is in vivo. As for the experimental part:
In the course of a first healing trial, 5 patients suffering from secondary progressive MS (SPMS patients) were treated. They consisted of 3 men […]/62 and two women […].
As part of the therapy, treosulfan was administered in the form of a solution suitable for intravenous application (infusion). The patients were treated with a dosage of 5 g/m^2 body surface in each case at intervals of 4 weeks in the first quarter. Subsequently, a single treosulfan application (5 g/m^2 of treosulfan) took place per quarter.
In the case of two patients, an improvement of the ambulation index (S. L. Hauser et al. N. Engl. J. Med. 308 (1983) 173–178) was observed.

A further data set relates to interferon-β (IFN-β). The data set is described as follows: Quantitative PCR for IFN in MOG-EAE rats. It counts as in vivo, DA rats. Particulars: treatment on day 0. The source says: (§1) In a second experiment, five rats each were characterised immunologically on day 12 and day 40 (total number of animals: n=30) following the immunisation with respect to T and B cell response (EliSpot (Autoimmun Diagnostika GmbH, D-72479 Strassberg) for IFN-secreting cells, proliferations, auto-antibody analysis). (R. Weissert et al., J. Immunol. 160 […], 681–690).
(§2) It was, moreover, observed that the interleukin 12 (IL-12) and/or interferon-β (IFN-β) values were reduced in the treosulfan group (FIG. 16, 17). (R. Weissert et al., J. Immunol. 166 (2001), 7588–7599).
FIG. 16: Quantitative PCR for IFN-treatment with treosulfan on day 0.

For the next data set, the system named is interleukin 12 (IL-12). The data set is described as follows: Quantitative PCR for IL-12 in MOG-EAE rats. It counts as in vivo, DA rats. The conditions noted are these: treatment on day 0.
Source text: as §1, §2
FIG. 17: Quantitative PCR for IL-12 treatment with treosulfan on day 0.

Turning to `O=C1c2c(O)ccc(O)c2C(=O)c2c(NCCNCCO)ccc(NCCNCCO)c21` [mitoxantrone], in data set [1] (same trial conditions, single i.p. treatment on the day of immunisation), the “effectiveness compared with the treosulfan group” value was “no greater effectiveness”.
Consider `CS(=O)(=O)OC[C@H](O)[C@@H](O)COS(C)(=O)=O` [treosulfan, (2S,3S)-threitol-1,4-bismethane sulphonate], for which, in data set [2] (blood taken day 0, 5, 14 and 53 following immunisation), the “changes to the blood picture (Hb, reticulocytes, leukocytes, thrombocytes, erythrocytes)” value is “not documented”. Moreover, the weight entry in data set [2] (single dose of 1 g/kg i.p., at the beginning of the treatment) is given as “substantial decrease in weight”. The “patients with improvement of the ambulation index” value in the data set on secondary progressive MS (5 SPMS patients, 5 g/m^2 body surface i.v. infusion every 4 weeks in the first quarter, then once per quarter) was “two”. In addition, in the data set with secondary progressive MS (5 SPMS patients, 5 g/m^2 i.v. infusion), the substance-related secondary effects result is “No substance-related secondary effects were observed”. Further, in the data set on secondary progressive MS (summary statement), the “disease development in MS patients” value was “clear improvement” and the tolerance result is “extremely well tolerated”. In addition, in the data set on interferon-β (IFN-β), the “interferon-β (IFN-β) values” was “reduced”. Moreover, the “interleukin 12 (IL-12) values” in the data set on interleukin 12 (IL-12) is given as “reduced”. Besides, in data set [1] (FIGS. 1-3a), the “effectiveness in comparison with the untreated control group” value is listed as “confirm first of all the effectiveness”. In addition, in data set [1] (day 53, untreated control group 2 out of 8), the animals still alive is 7 out of 8. In addition, in data set [1] (single dose of 1 g/kg bodyweight, intraperitoneal), the “suppression of the disease” value is “capable of suppressing the disease”. Also, in data set [1] (treosulfan applied on day 14 following immunisation), the “disease course in contrast to untreated control group” value was “stabilisation”.
